Reference: patent US6525001B1, “Substituted pyrimidine and pyridine herbicides” (Mid-American Commercialization Corporation, priority 1997, dated 2003)

Columns and labels:
Test in all cases: Test B pre-/postemergence
Format in all cases: in vivo
Parameters in all cases: key: 0 is no effect; 10 is complete control
[1] = tested on: purple nutsedge (Cyperus rotundus)
Source text: (§1) Seeds of bedstraw (Galium aparine), blackgrass (Alopecurus myosuroides), broadleaf signalgrass (Brachiaria decumbens), cocklebur (Xanthium strumarium), corn (Zea mays), crabgrass (Digitaria sanguinalis), giant foxtail (Setaria faberii), lambsquarters (Chenopodium album), momingglory (Ipomoea hederacea), pigweed (Amaranthus retroflexus), rape (Brassica napus), soybean (Glycine max), sugar beet (Beta vulgaris), velvetleaf (Abutilon theophrasti), wheat (Triticum aestivum), wild oat (Avena fatua) and purple nutsedge (Cyperus rotundus) tubers were planted and treated preemergence with test chemicals formulated in a non-phytotoxic solvent mixture which included a surfactant.
(§2) At the same time, these crop and weed species were also treated with postemergence applications of test chemicals formulated in the same manner. Plants ranged in height from 2 to 18 cm (1- to 4-leaf stage) for postemergence treatments. Plant species in the flood test consisted of rice (Oryza sativa), smallflower flatsedge (Cyperus difformis), duck salad (Heteranthera limosa) and bamyardgrass (Echinochloa crus-galli) grown to the 2-leaf stage for testing. Treated plants and controls were maintained in a greenhouse for twelve to sixteen days, after which all species were compared to controls and visually evaluated. Plant response ratings, summarized in Table B, are based on a scale of 0 to 10 where 0 is no effect and 10 is complete control. A dash (−) response means no test result.

[2] = tested on: velvetleaf (Abutilon theophrasti)
Source text: as §1, §2

[3] = tested on: soybean (Glycine max)
Source text: as §1, §2

[4] = tested on: pigweed (Amaranthus retroflexus)
Source text: as §1, §2

[5] = tested on: wild oat (Avena fatua)
Source text: as §1, §2

[6] = tested on: sugar beet (Beta vulgaris)
Source text: as §1, §2

[7] = tested on: cocklebur (Xanthium strumarium)
Source text: as §1, §2

[8] = tested on: bedstraw (Galium aparine)
Source text: as §1, §2

[9] = tested on: momingglory (Ipomoea hederacea)
Source text: as §1, §2

Cc1cnc(-c2ccc(F)c(Cl)c2)nc1Cc1cccc(C(F)(F)F)c1 [Compound 25]
9: Plant response rating, Velvetleaf ([2]; Rate 125 g/ha, Postemergence) | Plant response rating, Velvetleaf ([2]; Rate 250 g/ha, Postemergence) | Plant response rating, Redroot pigweed ([4]; Rate 250 g/ha, Preemergence) | Plant response rating, Sugarbeets ([6]; Rate 250 g/ha, Preemergence) | Plant response rating, Cocklebur ([7]; Rate 62 g/ha, Postemergence) | Plant response rating, Cocklebur ([7]; Rate 125 g/ha, Postemergence) | Plant response rating, Cocklebur ([7]; Rate 250 g/ha, Postemergence) | Plant response rating, Bedstraw ([8]; Rate 62 g/ha, Postemergence)
10: Plant response rating, Redroot pigweed ([4]; Rate 62 g/ha, Postemergence) | Plant response rating, Redroot pigweed ([4]; Rate 125 g/ha, Postemergence) | Plant response rating, Redroot pigweed ([4]; Rate 250 g/ha, Postemergence) | Plant response rating, Sugarbeets ([6]; Rate 62 g/ha, Postemergence) | Plant response rating, Sugarbeets ([6]; Rate 125 g/ha, Postemergence) | Plant response rating, Sugarbeets ([6]; Rate 250 g/ha, Postemergence) | Plant response rating, Bedstraw ([8]; Rate 125 g/ha, Postemergence) | Plant response rating, Bedstraw ([8]; Rate 250 g/ha, Postemergence) | Plant response rating, Morningglory ([9]; Rate 62 g/ha, Postemergence) | Plant response rating, Morningglory ([9]; Rate 125 g/ha, Postemergence) | Plant response rating, Morningglory ([9]; Rate 250 g/ha, Postemergence) | Plant response rating, Morningglory ([9]; Rate 250 g/ha, Preemergence)
6: Sugarbeets plant response rating ([6]; Rate 62 g/ha, Preemergence)
0: Nutsedge plant response rating ([1]; Rate 62 g/ha, Preemergence) | Nutsedge plant response rating ([1]; Rate 125 g/ha, Preemergence) | Plant response rating, Nutsedge ([1]; Rate 250 g/ha, Preemergence) | Velvetleaf plant response rating ([2]; Rate 62 g/ha, Preemergence) | Velvetleaf plant response rating ([2]; Rate 125 g/ha, Preemergence) | Soybean plant response rating ([3]; Rate 62 g/ha, Preemergence) | Soybean plant response rating ([3]; Rate 125 g/ha, Preemergence) | Cocklebur plant response rating ([7]; Rate 62 g/ha, Preemergence) | Cocklebur plant response rating ([7]; Rate 125 g/ha, Preemergence)
3: Redroot pigweed plant response rating ([4]; Rate 125 g/ha, Preemergence) | Plant response rating, Wild oats ([5]; Rate 62 g/ha, Postemergence) | Plant response rating, Wild oats ([5]; Rate 125 g/ha, Postemergence) | Wild oats plant response rating ([5]; Rate 125 g/ha, Preemergence) | Morningglory plant response rating ([9]; Rate 62 g/ha, Preemergence) | Morningglory plant response rating ([9]; Rate 125 g/ha, Preemergence)
8: Plant response rating, Velvetleaf ([2]; Rate 62 g/ha, Postemergence) | Sugarbeets plant response rating ([6]; Rate 125 g/ha, Preemergence) | Plant response rating, Cocklebur ([7]; Rate 250 g/ha, Preemergence)
1: Plant response rating, Nutsedge ([1]; Rate 62 g/ha, Postemergence) | Plant response rating, Nutsedge ([1]; Rate 125 g/ha, Postemergence) | Plant response rating, Soybean ([3]; Rate 250 g/ha, Preemergence) | Redroot pigweed plant response rating ([4]; Rate 62 g/ha, Preemergence) | Wild oats plant response rating ([5]; Rate 62 g/ha, Preemergence) | Bedstraw plant response rating ([8]; Rate 62 g/ha, Preemergence) | Bedstraw plant response rating ([8]; Rate 125 g/ha, Preemergence)
2: Plant response rating, Nutsedge ([1]; Rate 250 g/ha, Postemergence) | Plant response rating, Velvetleaf ([2]; Rate 250 g/ha, Preemergence) | Plant response rating, Bedstraw ([8]; Rate 250 g/ha, Preemergence)
5: Plant response rating, Wild oats ([5]; Rate 250 g/ha, Preemergence)
7: Plant response rating, Soybean ([3]; Rate 125 g/ha, Postemergence) | Plant response rating, Soybean ([3]; Rate 250 g/ha, Postemergence)
4: Plant response rating, Soybean ([3]; Rate 62 g/ha, Postemergence) | Plant response rating, Wild oats ([5]; Rate 250 g/ha, Postemergence)
